Activity calls are given as the source filed them. No cut-off for these calls is given here.
What was measured:
[1] = test system: RAW264.7; test: Induction of apoptosis in mouse RAW264.7 cells assessed as apoptotic cells at 16 uM by flow cytometry analysis (reference value: 3.06 %); assay type: functional
[2] = test system: RAW264.7; test: Induction of apoptosis in mouse RAW264.7 cells assessed as apoptotic cells at 10 uM by flow cytometry analysis (reference value: 3.06 %); assay type: functional
[3] = test system: RAW264.7; test: Induction of apoptosis in mouse RAW264.7 cells assessed as apoptotic cells at 4 uM by flow cytometry analysis (reference value: 3.06 %); assay type: functional
[4] = test system: RAW264.7; test: Induction of apoptosis in mouse RAW264.7 cells assessed as live cells at 4 uM by flow cytometry analysis (reference value: 67.2 %); assay type: functional
[5] = test system: RAW264.7; test: Induction of apoptosis in mouse RAW264.7 cells assessed as live cells at 16 uM by flow cytometry analysis (reference value: 67.2 %); assay type: functional
[6] = test system: RAW264.7; test: Induction of apoptosis in mouse RAW264.7 cells assessed as necrotic cells at 10 uM by flow cytometry analysis (reference value: 28.7 %); assay type: functional
[7] = Toxicity in BALB/c mouse assessed as increase in Timp1 expression at 100 to 1000 ug measured after 16 hrs in presence of hemagglutinin; details: in vivo, dose 100-1000 µg
[8] = test system: BMDC; test: Induction of immune response in TLR7 knockout mouse BMDC cells assessed as increase in CXCL10 production at 10 to 100 uM incubated for 24 hrs by ELISA method; assay type: functional, cell-based; details: dose 10-100 µM
[9] = test system: RAW264.7; test: Induction of apoptosis in mouse RAW264.7 cells assessed as live cells at 12 uM by flow cytometry analysis (reference value: 67.2 %); assay type: functional
[10] = test system: RAW264.7; test: Induction of apoptosis in mouse RAW264.7 cells assessed as necrotic cells at 8 uM by flow cytometry analysis (reference value: 28.7 %); assay type: functional
[11] = test system: BMDC; test: Induction of immune response in TLR7 knockout mouse BMDC cells assessed as increase in IFN-beta production at 10 to 100 uM incubated for 24 hrs by ELISA method; assay type: functional, cell-based; details: dose 10-100 µM
[12] = test system: RAW264.7; test: Induction of apoptosis in mouse RAW264.7 cells assessed as apoptotic cells at 12 uM by flow cytometry analysis (reference value: 3.06 %); assay type: functional
[13] = Toxicity in BALB/c mouse assessed as reduction in leukocyte count measured after 16 hrs; details: dose 100-1000 µg
[14] = test system: RAW264.7; test: Induction of apoptosis in mouse RAW264.7 cells assessed as live cells at 8 uM by flow cytometry analysis (reference value: 67.2 %); assay type: functional
[15] = test system: BMDC; test: Induction of immune response in TLR7 knockout mouse BMDC cells assessed as increase in MIP-1alpha production at 10 to 100 uM incubated for 24 hrs by ELISA method; assay type: functional, cell-based; details: dose 10-100 µM
[16] = test system: BMDC; test: Induction of immune response in TLR7 knockout mouse BMDC cells assessed as increase in TNF-alpha production at 10 to 100 uM incubated for 24 hrs by ELISA method; assay type: functional, cell-based; details: dose 10-100 µM
[17] = Toxicity in BALB/c mouse assessed as effect on body weight loss at 1000 ug measured after 16 hrs in presence of hemagglutinin; details: in vivo, dose 1000 µg
[18] = test system: RAW264.7; test: Induction of apoptosis in mouse RAW264.7 cells assessed as necrotic cells at 12 uM by flow cytometry analysis (reference value: 28.7 %); assay type: functional
[19] = test system: BMDC; test: Induction of immune response in TLR7 knockout mouse BMDC cells assessed as increase in IL-6 production at 10 to 100 uM incubated for 24 hrs by ELISA method; assay type: functional, cell-based; details: dose 10-100 µM
[20] = test system: RAW264.7; test: Induction of apoptosis in mouse RAW264.7 cells assessed as live cells at 10 uM by flow cytometry analysis (reference value: 67.2 %); assay type: functional
[21] = test system: RAW264.7; test: Induction of apoptosis in mouse RAW264.7 cells assessed as apoptotic cells at 8 uM by flow cytometry analysis (reference value: 3.06 %); assay type: functional
[22] = Toxicity in BALB/c mouse assessed as increase in Mx2 expression at 100 to 1000 ug measured after 16 hrs in presence of hemagglutinin; details: in vivo, dose 100-1000 µg
[23] = test system: Mus musculus; test: Immuno-adjuvant activity in SV-immunized C57BL/6 mouse assessed as increase in HA-specific IgG1 titer level at 100 ug, sc administered immediately and on day 0, 14 and measured at day 21 by ELISA; assay type: functional, organism-based; details: dose 100.0 µg, time 21.0 day
[24] = test system: RAW264.7; test: Induction of apoptosis in mouse RAW264.7 cells assessed as necrotic cells at 16 uM by flow cytometry analysis (reference value: 28.7 %); assay type: functional
[25] = test system: RAW264.7; test: Induction of apoptosis in mouse RAW264.7 cells assessed as necrotic cells at 4 uM by flow cytometry analysis (reference value: 28.7 %); assay type: functional
[26] = test system: BMDC; test: Induction of IL-6 production in mouse BMDC cells at 100 uM; assay type: functional, cell-based

C[C@H](CCC(=O)NCCCCCNC(=O)CC[C@@H](C)[C@H]1CC[C@H]2[C@@H]3CC[C@@H]4C[C@H](O)CC[C@]4(C)[C@H]3C[C@H](O)[C@]12C)[C@H]1CC[C@H]2[C@@H]3CC[C@@H]4C[C@H](O)CC[C@]4(C)[C@H]3C[C@H](O)[C@]12C gave an Activity [1] of 0.034%, an Activity [2] of 0.6% and an Activity [3] of 2.23%. For the same molecule, the Activity [4] was 67.4%, the Activity [5] was 11.6% and the Activity [6] was 63.8%. For the same molecule, the Activity [7] was “Toxic”, the Activity [8] was “inactive” and the Activity [9] was 27.9%. For the same molecule, the Activity [10] was 29.4%, the Activity [11] was “inactive” and the Activity [12] was 0.13%. The Activity [13] was “Dose-Dependent Effect”, the Activity [14] was 66.9% and the Activity [15] was “inactive”. For the same molecule, the Activity [16] was “inactive”, the Activity [17] was “Toxic” and the Activity [18] was 69.7%. The Activity [19] was “inactive”, the Activity [20] was 33.5% and the Activity [21] was 2.26%. For the same molecule, the Activity [22] was “Toxic”, the Activity [23] was “Active” and the Activity [24] was 85%. The Activity [25] was 28.6%.
With C[C@H](CCC(=O)NCCCCCNC(=O)CC[C@@H](C)[C@H]1CC[C@H]2[C@@H]3[C@H](O)C[C@@H]4C[C@H](O)CC[C@]4(C)[C@H]3CC[C@]12C)[C@H]1CC[C@H]2[C@@H]3[C@H](O)C[C@H]4C[C@H](O)CC[C@]4(C)[C@H]3CC[C@]12C the Activity [26] was “Active”.
